Earlier results in patent publication US20240316118A1, “ANTIVIRAL NASAL SPRAY FLAVONOIDS?BEE PROPOLIS” (priority 2022, published 2024).
Converted amounts (≈) assume the structure as drawn. Read-outs that look alike come from different tables or passages of the source.

Key:
Rotavirus virions = conditions: Rhesus Rotavirus, Ref. [20]
NS3 protease = NS3 protease (Hepatitis C virus genotype 1a, UniProt P26664); conditions: for Molecular Mechanisms: HCV replication: NS3 protease
HCV replicase = conditions: Ref. [19]
DENV-2 virions = conditions: DENV-2, Ref. [40]
NS1 = NS1 (Dengue virus type 2, UniProt P29990); conditions: Ref. [23] (molecular docking)
Sequence of NS1 (P29990 776-1127 limits assumed): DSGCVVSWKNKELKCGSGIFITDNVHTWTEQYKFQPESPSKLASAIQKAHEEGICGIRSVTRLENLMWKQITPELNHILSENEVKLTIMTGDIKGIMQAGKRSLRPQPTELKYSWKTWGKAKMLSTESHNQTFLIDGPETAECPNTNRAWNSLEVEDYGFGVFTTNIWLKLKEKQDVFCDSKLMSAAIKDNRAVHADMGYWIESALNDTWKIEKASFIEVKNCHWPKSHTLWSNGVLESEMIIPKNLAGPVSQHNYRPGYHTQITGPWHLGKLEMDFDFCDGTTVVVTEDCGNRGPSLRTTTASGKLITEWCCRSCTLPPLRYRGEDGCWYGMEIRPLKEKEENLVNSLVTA

NOX4 = conditions: NOX4, Ref. [24]
HIV protease = HIV protease (Human immunodeficiency virus type 1 group M subtype B, UniProt P04585); conditions: Ref. [27] (computational)
NS5B polymerase = NS5B polymerase (Hepatitis C virus genotype 1a, UniProt P26664); conditions: for Molecular Mechanisms: HCV replication: NS5B polymerase, Refs. [33], [40]
Sequence of NS5B polymerase (P26664 2421-3011): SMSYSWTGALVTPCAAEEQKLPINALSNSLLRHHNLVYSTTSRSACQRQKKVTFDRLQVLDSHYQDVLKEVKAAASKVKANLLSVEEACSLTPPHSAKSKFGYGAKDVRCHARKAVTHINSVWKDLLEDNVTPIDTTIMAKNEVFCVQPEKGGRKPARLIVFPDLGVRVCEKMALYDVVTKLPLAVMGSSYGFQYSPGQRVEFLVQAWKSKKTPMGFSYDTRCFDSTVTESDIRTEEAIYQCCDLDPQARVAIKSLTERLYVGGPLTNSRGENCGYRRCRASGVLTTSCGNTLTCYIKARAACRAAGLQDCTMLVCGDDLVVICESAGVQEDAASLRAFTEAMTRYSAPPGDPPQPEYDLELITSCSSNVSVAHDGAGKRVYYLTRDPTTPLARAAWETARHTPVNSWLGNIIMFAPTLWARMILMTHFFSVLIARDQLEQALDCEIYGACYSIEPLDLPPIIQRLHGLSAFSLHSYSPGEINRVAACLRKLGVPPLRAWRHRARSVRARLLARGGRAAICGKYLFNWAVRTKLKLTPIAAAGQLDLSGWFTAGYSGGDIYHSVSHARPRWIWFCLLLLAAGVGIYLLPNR

SARS-CoV = conditions: Vero E6 cells; read-out: half-effective concentration (EC50), SARS-CoV infection
NS5A, HSP70, HCV virions = conditions: Ref. [41]
Envelope protein, 2 = Envelope protein, 2 (Hepatitis C virus genotype 1a, UniProt P26664); conditions: HCV Envelope protein 2, Ref. [41]
Sequence of Envelope protein, 2 (P26664 384-746): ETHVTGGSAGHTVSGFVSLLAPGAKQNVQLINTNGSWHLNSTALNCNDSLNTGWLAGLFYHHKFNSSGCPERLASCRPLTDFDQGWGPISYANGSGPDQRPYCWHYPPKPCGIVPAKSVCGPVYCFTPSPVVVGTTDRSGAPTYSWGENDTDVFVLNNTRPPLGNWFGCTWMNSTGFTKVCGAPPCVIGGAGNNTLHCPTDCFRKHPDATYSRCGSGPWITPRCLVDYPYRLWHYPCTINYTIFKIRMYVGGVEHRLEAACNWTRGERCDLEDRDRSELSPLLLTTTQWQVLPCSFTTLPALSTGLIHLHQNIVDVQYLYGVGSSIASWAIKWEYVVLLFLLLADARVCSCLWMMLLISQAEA

Phosphoprotein P = conditions: Ref. [32]; for Molecular Mechanisms: viral replication: RSV
cytomegalovirus = conditions: inoculated HeLa cells; read-out: half inhibitory concentration (IC50), replication of cytomegalovirus
[1] = system: Dengue virus type 2 (DENV-2); conditions: Vero cells
bovine coronavirus NCDCV = conditions: at a concentration of 60 μg/mL
human coronavirus OC43 = conditions: at a concentration of 60 μg/mL
Influenza virions = conditions: Influenza A/WS/33, Ref. [37]
Vero cells = conditions: PEDV study
PEDV = conditions: Vero cells
Reverse transcriptase = Reverse transcriptase (Human immunodeficiency virus type 1 group M subtype B, UniProt P04585); conditions: Refs. [43], [31]
NTCP receptor = NTCP receptor (Homo sapiens, UniProt Q14973)
Sequence of NTCP receptor (Q14973 whole entry): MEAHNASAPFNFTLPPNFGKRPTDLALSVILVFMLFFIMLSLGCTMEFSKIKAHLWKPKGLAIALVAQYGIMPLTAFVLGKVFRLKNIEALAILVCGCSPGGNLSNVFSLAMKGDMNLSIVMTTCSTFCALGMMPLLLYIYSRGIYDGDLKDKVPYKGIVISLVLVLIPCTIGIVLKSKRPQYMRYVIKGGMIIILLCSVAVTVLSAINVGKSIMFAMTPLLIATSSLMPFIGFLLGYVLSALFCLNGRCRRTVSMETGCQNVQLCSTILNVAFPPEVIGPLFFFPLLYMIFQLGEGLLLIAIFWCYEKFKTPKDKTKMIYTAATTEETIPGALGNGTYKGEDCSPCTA

Sequence of NS3 protease (P26664 1027-1657): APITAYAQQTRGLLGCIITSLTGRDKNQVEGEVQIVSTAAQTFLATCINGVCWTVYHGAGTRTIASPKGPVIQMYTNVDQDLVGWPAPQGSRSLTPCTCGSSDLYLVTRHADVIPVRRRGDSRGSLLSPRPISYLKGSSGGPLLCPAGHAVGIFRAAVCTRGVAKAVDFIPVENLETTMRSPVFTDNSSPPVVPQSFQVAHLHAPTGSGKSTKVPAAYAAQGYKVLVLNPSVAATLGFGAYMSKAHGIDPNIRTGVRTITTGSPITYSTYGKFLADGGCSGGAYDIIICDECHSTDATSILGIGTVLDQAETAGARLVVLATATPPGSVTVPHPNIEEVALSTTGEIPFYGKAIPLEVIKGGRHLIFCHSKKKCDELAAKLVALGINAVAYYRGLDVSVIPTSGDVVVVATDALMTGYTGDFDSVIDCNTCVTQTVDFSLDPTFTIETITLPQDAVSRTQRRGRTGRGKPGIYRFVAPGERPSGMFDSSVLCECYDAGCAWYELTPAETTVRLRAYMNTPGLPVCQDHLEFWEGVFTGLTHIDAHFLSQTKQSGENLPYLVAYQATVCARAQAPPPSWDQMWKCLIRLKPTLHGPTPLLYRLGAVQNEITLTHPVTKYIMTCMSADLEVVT
Sequence of NS3 protease (P26664 1658-1711): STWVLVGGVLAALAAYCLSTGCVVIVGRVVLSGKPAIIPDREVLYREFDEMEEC

For O=c1cc(-c2ccc(O)cc2)oc2cc(O[C@@H]3O[C@H](CO)[C@@H](O)[C@H](O)[C@H]3O)cc(O)c12 [Apigenin-7-O-glucoside], the “Molecular Mechanisms: viral replication” value (Rotavirus virions) is given as “Inhibition viral”.

In the case of O=c1cc(-c2ccc(O)cc2)oc2cc(O)cc(O)c12 [Apigenin], the “Molecular Mechanisms: HCV replication” value (NS3 protease) is listed as “Inhibition of HCV” and the “Molecular Mechanisms: HCV replication” value (HCV replicase) is listed as “Inhibition HCV”.

In the case of O=C(O)[C@H]1O[C@@H](Oc2cc3oc(-c4ccccc4)cc(=O)c3c(O)c2O)[C@H](O)[C@@H](O)[C@@H]1O [Baicalin], the “Molecular Mechanisms: viral replication” value (DENV-2 virions) is listed as “Inhibition of viral replication,” and the “Molecular Mechanisms: viricidal activity” value (DENV-2 virions) is listed as “Viricidal activity”.

In the case of O=C1c2c(O)cc(O)cc2OC(c2ccc(O)cc2)C1C1C(=O)c2c(O)cc(O)cc2OC1c1ccc(O)cc1 (stereo not drawn) [Chamaejasmin], the “Molecular Mechanisms: NS1 glycosylation” value (NS1) is listed as “Inhibition of NS1 glycosylation”.

In the case of CC1O[C@@H](OC[C@H]2OC(Oc3cc4c(O)cc(O)cc4[o+]c3-c3cc(O)c(O)c(O)c3)[C@H](O)C(O)C2O)C(O)C(O)[C@H]1O (stereo partly drawn) [Delphinidin-3-rutinoside], the “Molecular Mechanisms: HSV-1 replication” value (NOX4) is listed as “Inhibition of HSV-1”.

For O=c1c(O)c(-c2ccc(O)cc2)oc2cc(O[C@@H]3O[C@H](CO)[C@@H](O)[C@H](O)[C@H]3O)cc(O)c12 [Kaempferol-7-O-glucoside], the “Molecular Mechanisms: virion production” value (HIV protease) is given as “Inhibition virion production”.

For O=c1cc(-c2ccc(O)c(O)c2)oc2cc(O)cc(O)c12 [Luteolin], the CC50 (Vero E6 cells) is given as 155 µM, the “Molecular Mechanisms: HCV replication” value (NS5B polymerase) is given as “Inhibition of HCV” and the “Molecular Mechanisms: HCV replication” value (HCV replicase) is given as “Inhibition HCV”. The EC50 (SARS-CoV) was 10.6 µM.

In the case of O=C1C[C@@H](c2ccc(O)cc2)Oc2cc(O)cc(O)c21 [Naringenin], the “Molecular Mechanisms: viral translation” value (NS5A, HSP70, HCV virions) is given as “Inhibition Of viral”, the “Molecular Mechanisms: virion assembly” value (NS5A, HSP70, HCV virions) is given as “Inhibition of virion” and the “Molecular Mechanisms: virion assembly” value (Envelope protein, 2) is given as “Inhibition of virion assembly,”.

In the case of COc1ccc(-c2cc(=O)c3c(OC)c(OC)c(OC)c(OC)c3o2)cc1OC [Nobiletin], the “Molecular Mechanisms: viral replication” value (Phosphoprotein P) is listed as “Inhibition of viral replication,” and the “Molecular Mechanisms: RSV entry into cells” value (Phosphoprotein P) is listed as “Inhibition of RSV entry into cells”.

For O=c1c(O)c(-c2ccc(O)c(O)c2)oc2cc(O)c(O)c(O)c12 [Quercetagetin], the “Molecular Mechanisms: RNA binding to NS5B” value (NS5B polymerase; HCV, Ref. [39]) is given as “Inhibition of RNA binding to NS5B”.

In the case of O=c1c(O)c(-c2ccc(O)c(O)c2)oc2cc(O)cc(O)c12 [Quercetin, 2-(3,4-dihydroxyphenyl)-3,5,7-trihydroxy-4H-1 benzopyran-4-one], the CC50 (Vero E6 cells; read-out: cytotoxicity CC50, Vero E6 cells) is given as 3320 µM, the IC50 (cytomegalovirus) is given as 3.2 ± 0.8 µM and the “Molecular Mechanisms: HCV replication” value (NS5B polymerase) is given as “Inhibition of HCV”. The “Molecular Mechanisms: viral translation” value (NS5A, HSP70, HCV virions) was “Inhibition Of viral”, the “Molecular Mechanisms: virion assembly” value (NS5A, HSP70, HCV virions) was “Inhibition of virion” and the “Molecular Mechanisms: virion production” value (NS3 protease; HCV NS3 protease) was “Inhibition of virion production”. The “Molecular Mechanisms: HCV replication” value (NS3 protease) was “HCV NS3 protease Inhibition of HCV replication,”, the “DENV-2 ribonucleic acid (RNA) reduction” value [1] was 67% and the “IC50, DENV-2 replication” value [1] was 35.7 µg/mL (≈ 118 µM). For the same molecule, the “reduced infectivity of bovine coronavirus NCDCV” value (bovine coronavirus NCDCV) was 50%, the “reduced infectivity of human coronavirus OC43” value (human coronavirus OC43) was 50% and the “Molecular Mechanisms: virion assembly” value (Envelope protein, 2) was “Inhibition of virion assembly,”.

For C[C@@H]1O[C@@H](Oc2c(-c3ccc(O)c(O)c3)oc3cc(O)cc(O)c3c2=O)[C@H](O)[C@H](O)[C@H]1O [Quercetin-3-rhamnoside], the “Molecular Mechanisms: virus infection” value (Influenza virions) is listed as “Inhibition of virus infection”.

For COc1ccc(-c2cc(=O)c3c(OC)c(OC)c(OC)c(OC)c3o2)cc1 [Tangeretin], the “Molecular Mechanisms: viral replication” value (Phosphoprotein P) is given as “Inhibition of viral replication,” and the “Molecular Mechanisms: RSV entry into cells” value (Phosphoprotein P) is given as “Inhibition of RSV entry into cells”.

In the case of C[C@@H]1O[C@@H](Oc2cc(O)c3c(=O)c(O)c(-c4ccc(O)c(O)c4)oc3c2)[C@H](O)[C@H](O)[C@H]1O [quercetin 7-O-rhamnoside], the “50% cytotoxicity concentration (CC50)” value (Vero cells) is given as 100 µg/mL and the “IC50, PEDV replication” value (PEDV) is given as 0.014 µg/mL (≈ 0.0312 µM).

For CC(C)=CC[C@@]12Oc3cc(O)c([C@H]4C=C(C)C[C@H](c5ccc(O)cc5O)[C@H]4C(=O)c4ccc(O)cc4O)c(O)c3C(=O)[C@]1(O)Oc1cc(O)ccc12 [sanggenon O], the “Molecular Mechanisms: NS1 glycosylation” value (NS1) is given as “Inhibition of NS1 glycosylation”.

In the case of Catechin, the “Molecular Mechanisms: viral translation” value (NS5A, HSP70, HCV virions) is given as “Inhibition Of viral” and the “Molecular Mechanisms: virion assembly” value (NS5A, HSP70, HCV virions) is given as “Inhibition of virion”.

For epigallocatechin-3-gallate [EGCG], the “Molecular Mechanisms: NS1 glycosylation” value (NS1) is listed as “Inhibition of NS1 glycosylation”, the “Molecular Mechanisms: virion production” value (HIV protease) is listed as “Inhibition virion production” and the “Molecular Mechanisms: HIV replication” value (Reverse transcriptase) is listed as “Inhibition of HIV”. For the same molecule, the “Molecular Mechanisms: HBV entry into cells” value (NTCP receptor) was “Inhibition of HBV entryinto”.
